Target: T1, Eimeria tenella aldolase 2 (EtALD2), fructose-1,6-bisphosphate aldolase (Eimeria tenella, UniProt U6KYI1)
T1 sequence (U6KYI1 1-368): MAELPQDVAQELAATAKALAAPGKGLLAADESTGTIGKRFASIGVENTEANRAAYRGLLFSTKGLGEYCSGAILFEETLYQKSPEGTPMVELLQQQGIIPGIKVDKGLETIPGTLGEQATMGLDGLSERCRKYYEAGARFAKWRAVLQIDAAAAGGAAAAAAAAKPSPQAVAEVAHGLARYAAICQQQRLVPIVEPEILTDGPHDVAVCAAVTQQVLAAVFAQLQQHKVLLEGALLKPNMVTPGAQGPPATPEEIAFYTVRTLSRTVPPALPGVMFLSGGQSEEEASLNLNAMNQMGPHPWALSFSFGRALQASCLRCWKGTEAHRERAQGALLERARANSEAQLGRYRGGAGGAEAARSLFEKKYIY
Assay type: biochemical

- IC50: 10.4 µM
SMILES: O=c1c(O)c(-c2ccc(O)cc2O)oc2cc(O)cc(O)c12 [morin]
